Experimental data taken from patent EP3641564B1, “TASTE MODULATING FLAVORING SUBSTANCES” (Symrise AG, priority 2017, dated 2018).

Legend:
[1] = Sensory panel rating of bitterness reduction of a theobromine solution; format: in vivo
Text: (§1) Um die Reduzierung (d.h. die Maskierung oder Verminderung) des Bitter-Eindrucks in einer Probe zu quantifizieren, wurde die Bitterkeit einer Lösung enthaltend 500 ppm Coffein oder 300 ppm Theobromin oder 100 ppm Naringin von einer Expertengruppe jeweils mit einer Probe verglichen, die 500 ppm Coffein oder 300 ppm Theobromin oder 100 ppm Naringin und zusätzlich die jeweils angegebene Menge einer (hinsichtlich der Fähigkeit zur Bitter-Reduzierung) zu beurteilenden Substanz enthielt (Einstufung: 0 [nicht bitter] bis 100 [extrem bitter]). Für die Auswertung, d.h. die Berechnung der Reduktion (in %) des Bittereindrucks wurden jeweils die Durchschnittswerte der Einschätzungen der Expertengruppe verwendet. Die Ergebnisse sind in Tabelle 1 zusammengefasst: Tabelle 1: Bitterreduzierung einer Bitterstofflösung

[2] = Sensory panel rating of bitterness reduction of a caffeine solution; format: in vivo; settings: for Bitterness rating with test substance (0-100 scale): expert panel mean, rating 0 [nicht bitter] to 100 [extrem bitter]; for % Reduktion des Bitter-Eindrucks (Signifikanz): 500 ppm Coffein, calculated from panel means versus solution without test substance
Text: as §1

[3] = 10 ppm test substance in 500 ppm Coffein solution

Row | SMILES | Bitter-Eindruck (0-100) mit Testsubstanz ([1]; 25 ppm test substance in 300 ppm Theobromin solution, expert panel mean, rating 0 [nicht bitter] to 100 [extrem bitter]) | % Reduktion des Bitter-Eindrucks (Signifikanz) ([1]; 25 ppm test substance, 300 ppm Theobromin, calculated from panel means versus solution without test substance) | Bitterness rating with test substance (0-100 scale) [2, 3] | % Reduktion des Bitter-Eindrucks (Signifikanz) ([2]; 10 ppm test substance) | Bitterness rating with test substance (0-100 scale) ([2]; 25 ppm test substance in 500 ppm Coffein solution) | % Reduktion des Bitter-Eindrucks (Signifikanz) ([2]; 25 ppm test substance)
1 | COc1ccc(C(O)Cc2cccc(O)c2C(=O)O)cc1O (single isomer, unassigned) [Substanz (3), 2-Hydroxy-6-[2-hydroxy-2-(3-hydroxy-4-methoxyphenyl)ethyl]benzoesäure] | 39.76 ± 20.91 | 16.5 % (p = 0.21) | 41.25 + 21.83 | 14.0 % (p = 0.29) | 38.85 + 19.19 | 26.5 % (p < 0.05)
2 | COc1ccc(/C=C/c2cccc(O)c2C(=O)O)cc1O [Substanz (6), 2-Hydroxy-6-[(E)-2-(3-hydroxy-4-methoxyphenyl)vinyl]benzoesäure] |  |  | 37.50 ± 18.84 | 18.3 % (p = 0.15) |  | 
